# {(RXR)4XB} = cell-penetrating peptide (RXR)4XB; {Ac} = acetyl (COCH3) cap
# Experiments:
# Type in all cases: cell-based, Pseudomonas aeruginosa
# [1] = test system: P. aeruginosa PAO1 biofilm; experiment: Biofilm prevention in MBEC plate (crystal violet); conditions: 5 μM PPMO, 2 μg/mL PMBN, MHII, 20 hours; one-way ANOVA p<0.0001
# Method: P. aeruginosa PAO1 (5×10^5 cfu/mL) was grown in MHII media in an MBEC plate for 20 hours either alone or in the presence of 5 μM of the indicated PPMOs, PMBN alone, (RXR)4, or a scrambled PPMO. All conditions contained 2 μg/mL of PMBN unless indicated otherwise. Pegs were processed for crystal violet or visualized by microscopy at 20 hours. […] FIGS. 6B-6D: Spinning Disk confocal microscopy images of 20 hour biofilm treated with (FIG. 6B) No PPMO, (FIG. 6C) 5 μM Scr PPMO #41, (FIG. 6D) 5 μM RpsJ PPMO #14. PAO1 GFP is shown in green and biofilm is shown in red. The biofilm is stained with 200 μg/mL of Concanavalin A, Alexafluor 647 conjugate.
# Pseudomonas aeruginosa Biofilm Prevention in MBEC Plate Protocol
# • 1. 10 mL of MH is inoculated with a single colony and incubated at 37° C. and ˜250 rpm for about 5 hours. • 2. The sample is centrifuged for 10 minutes at ˜4000 rpm at 4° C., the supernatant is decanted and the pellet resuspended in 10 mL of 150 mM NaCl or PBS. This step is repeated to wash the pellet 3 times. • 3. The sample is resuspended in 10 mL 150 mM NaCl or PBS. • 4. The OD600 of the sample is taken and cfu/mL is calculated. (OD600 usually between 0.65-0.80). • 5. A Bacterial Working Solution (BWS) is made by inoculating 10 mL of MH to 5×10^5 cfu/mL final concentration. • 6. 2 μL/mL of 1 mg/mL stock PMBN is added to the BWS and vortexed 3 times. • 7. 1 mL of BWS is pipetted into each separate Eppendorf tube for each condition that is tested. • 8. An appropriate amount of PPMO is added to each Eppendorf tube and vortexed 3 times. • 9. Outside wells are filled with fresh MH, NaCl, or PBS to keep the outer pegs from drying out. • 10. One column of the MBEC plate is filled with 150 μL per well from each Eppendorf tube (one condition per column). • 11. Pegs are placed into the MBEC plate and the edges covered with a breathable membrane. • 12. The MBEC plate is incubated for 18-20 hours at 37° C. and 110 rpm. Day 2:
# 1. […] The final OD570 of the 10× dilution of solution should be approximately 0.500 absorbance. […]
# 2. OD reading: The OD570 for the 96-well plate from step 1e is determined. […]
# P. aeruginosa PAO1 = experiment: MIC of Ampicillin as a function of AmpR PPMO and PMBN concentration
# Text: An AmpR PPMO combined with PMBN restores activity of Ampicillin in P. aeruginosa PAO1.
# The ability to use PPMOs as adjunctive therapeutics to restore antibiotic sensitivity to existing drugs could be an intriguing way to explore treatment of multidrug-resistant pathogens that are increasingly being found in chronically infected patients. Frequently encountered resistance genes (β-lactamases, efflux pumps) were targeted. […] An exemplary PPMO, as set forth in Table 5 and illustrated below, was designed to target AmpR in P. aeruginosa, a global transcriptional regulator that regulates β-lactamases such as AmpC. […] Testing the AmpR PPMO in animal models would be a reasonable alternative approach to thinking of antisense as adjuvant therapy with traditional antibiotics.
# [2] = test system: panel of P. aeruginosa clinical isolates; experiment: MIC of PPMOs with sub-inhibitory concentrations of Colistin (polymyxin E); conditions: Colistin alone at either 1 or 0.5 μg/ml (depending on the strain)
# Method: MICs are indicated by color and numerical value as in FIG. 1. All MICs were performed in the presence of 1 μg/mL of Colistin unless otherwise noted (*Strains with an asterisk were tested with 0.5 μg/mL of Colistin).
# The overnight culture is plated to determine CFU/ml of starting inoculum. From the overnight culture 4 μl is taken into 10 ml of fresh medium and mixed well to obtain a bacterial working suspension. From the 10 ml, 50 μl is taken into 450 μl of saline. Serial dilutions of 10^−2, 10^−3 and 10^−4 are plated on BA. If Polymyxin B Nonapeptide (PMBN) is to be added, 4 μl/ml of PMBN is added from a stock of 1 mg/ml (in water) to the bacterial suspension for a 4 μg/ml final PMBN concentration.
# For every PPMO to be tested, the following is done: 6.8 μl of a 1 mM PPMO stock is added to 413.2 μl of bacterial working suspension and vortexed. 200 μl is placed in the first row (A) of a 96-well plate in duplicate. 100 μl of bacterial working suspension is added to rows B thru F. Row A is mixed well by pipetting 10 times. Then 100 μl from each well of row A is added to the 100 μl of bacterial working suspension in each well of row B and mixed well 10 times. Serial dilutions are continued in the same manner through to row F. Finally, 100 μl in the last row is removed and discarded. […]
# The plate is read in a plate reader to measure OD600. […]
# [3] = test system: P. aeruginosa strains that are multidrug resistant (strain T63547); experiment: MIC in multidrug resistant P. aeruginosa strains; conditions: strain T63547 (CF sputum; resistant to extended-spectrum penicillins, cephalosporins, quinolones, carbapenems)
# Method: In addition, MIC values of 8 μM or less in P. aeruginosa strains that are multidrug resistant have been achieved. For example, strain T63547 was isolated from the sputum of a CF patient and was resistant to extended-spectrum penicillins, cephalosporins, quinolones and carbapenems. The RpsJ PPMOs and the RpmB PPMO had MIC values of 4 μM. PPMOs also retained activity in mucoid strains of P. aeruginosa (such as strain H27925; CF sputum sample). This is a critically important finding, as mucoid Pseudomonas poses significant treatment challenges.
compound,measurement,setting,value
"PPMO #2: LpxC PMO GTTGTTTGATC, 5′ TEG, 3′ (RXR)4XB CPP",prevention of biofilm (crystal violet),[1],statistically significant prevention of biofilm
"CC1(C)S[C@@H]2[C@H](NC(=O)[C@H](N)c3ccccc3)C(=O)N2[C@H]1C(=O)O [Ampicillin, ampicillin, reference compound]",MIC,"P. aeruginosa PAO1; Pseudomonas aeruginosa, PAO1, in the absence of PPMO",512 µg/mL
"PPMO #28: ampR PMO GTCGAACCAAT, 5′ (RXR)4XB CPP, 3′ COCH3 (all phosphorodiamidate morpholino (PMO), 5' {(RXR)4XB}, 3' {Ac})",MIC of Ampicillin,P. aeruginosa PAO1; in the presence of 32 μM AmpR PPMO and 4 μg/ml PMBN,4 µg/mL
polymyxin E [Colistin],growth inhibition by Colistin alone,[2],did not inhibit growth
"PPMO #5: RpmB PMO CTCTAGACATG, 5′ TEG, 3′ (RXR)4XB CPP",MIC,[3],4 µM
same,prevention of biofilm (crystal violet),[1],statistically significant prevention of biofilm

# Reference: patent publication US11293024B2, “Antisense antibacterial compounds and methods” (priority 2014, dated 2022)
